# Data as given in publication PMC7932537, “Quantitative profiling of protease specificity” (PLoS Computational Biology, 2021).
# Key:
# [1] = tested on: MMP-2; assay: Substrate phage display with NGS: relative probability (RP) of P3-P1' tetramer clusters; type: biochemical, human; settings: for relative probability (RP) of matching tetramer: P3-P1' tetramer matching the MS detected MMP2 cleavage sequence, RP_above_4.5; for MMP2 relative probability (RP): MMP2 tetramers from unique substrates, unrounded values
# [2] = tested on: MMP-9; assay: as above; type: biochemical, human; settings: for corresponding MMP9 relative probability (RP): MMP2 tetramers from unique substrates, RP of same tetramer for MMP9
# [3] = MMP2, RP of matching P3-P1' tetramer, common set of MMP2-9 selectome, RP above KL threshold
# [4] = RP of matching tetramer, common MMP2-9 selectome
# [5] = MMP9, RP of matching P3-P1' tetramer, common set of MMP2-9 selectome
# [6] = MMP9, RP of the P3-P1' tetramer matching the MS detected cleavage, RP above 4.7, substrate phage display with NGS
# [7] = RP of matching tetramer, common MMP2-9 selectome, RP above KL threshold
# [8] = RP of the P3-P1' tetramer cluster contained in the hexamer, 200 nM MMP-2, 2 h, 37°C, two rounds of selection
# [9] = MMP9, RP of the P3-P1' tetramer contained in the hexamer substrate (substrate phage display, NGS)
# [10] = RP of the P3-P1' tetramer, MMP2 substrate phage display/NGS, tetramers of physiologic MEROPS substrates common to MMP2 and MMP9
# [11] = RP of the P3-P1' tetramer, MMP9 substrate phage display/NGS, tetramers of physiologic MEROPS substrates common to MMP2 and MMP9
# [12] = RP according to MMP2, P3-P1' tetramer of unique physiologic MMP2 substrates from MEROPS
# [13] = normalized RP of matching tetramer, unique part of MMP2 selectome
# [14] = RP according to MMP9, P3-P1' tetramer of unique physiologic MMP9 substrates from MEROPS
substance,measurement,setting,value
TLGL,relative probability (RP) (acc.to MMP2),[1]; [3],6
same,relative probability (RP) of matching tetramer,[1],6
same,relative probability (RP) (acc.to MMP2),[1]; [4],6
same,relative probability (RP) (acc.to MMP9),[2]; [5],9.79
same,relative probability (RP),[2]; [6],9.79
same,relative probability (RP) (acc.to MMP9),[2]; [7],9.79
HPVSMV,relative probability (RP),[1]; [8],30.0644
same,relative probability (RP),[2]; [9],41.2029
APGF,relative probability (RP) (acc.to MMP2),[1]; [10],0.64
same,relative probability (RP) (acc.to MMP9),[2]; [11],0.56
SRPAEF,relative probability (RP),[1]; [8],19.4662
same,relative probability (RP),[2]; [9],11.7405
LAHA,MMP2 relative probability (RP),[1],10.8276
same,Relative probability (RP) rank,[1]; [12],4607
same,relative probability (RP),[1]; [12],10.83
same,relative probability (RP),[1]; tetramer annotation of MMP-2 cleavage sites in physiologic substrates from MEROPS,10.83
same,corresponding MMP9 relative probability (RP),[2],0.5961
PKGA,relative probability (RP) (acc.to MMP2),[1]; [10],0
same,relative probability (RP) (acc.to MMP9),[2]; [11],1.22
AHNLSS,relative probability (RP),[1]; [8],23.7113
same,relative probability (RP),[2]; [9],29.6602
PHPRLL,relative probability (RP),[1]; [8],23.2612
same,relative probability (RP),[2]; [9],38.6219
GPARPY,relative probability (RP),[1]; [8],20.5004
same,relative probability (RP),[2]; [9],36.8874
ETPRPW,relative probability (RP),[1]; [8],32.1109
same,relative probability (RP),[2]; [9],41.1124
VSHY,relative probability (RP) (acc.to MMP2),[1]; [10],21.33
same,relative probability (RP) (acc.to MMP9),[2]; [11],15.49
PANA,relative probability (RP) of matching tetramer,[1],17.73
same,relative probability (RP) (acc.to MMP2),"[1]; RP of matching tetramer, unique part of MMP2 selectome, RP above KL threshold",17.73
same,normalized RP - MMP2,[1]; [13],0.4855
same,relative probability (RP) (acc.to MMP9),"[2]; RP of matching tetramer, unique part of MMP2 selectome",2.68
same,normalized RP - MMP9,[2]; [13],0.05116
IHSL,relative probability (RP) (acc.to MMP2),[1]; [3],6.87
same,relative probability (RP) of matching tetramer,[1],6.87
same,relative probability (RP) (acc.to MMP9),[2]; [5],4.86
IGRF,MMP2 relative probability (RP),[1],13.8957
same,Relative probability (RP) rank,[1]; [12],3460
same,relative probability (RP),[1]; [12],13.9
same,corresponding MMP9 relative probability (RP),[2],0.4689
MAGM,MMP2 relative probability (RP),[1],21.4504
same,Relative probability (RP) rank,[1]; [12],1484
same,relative probability (RP),[1]; [12],21.45
same,corresponding MMP9 relative probability (RP),[2],0.06237
WPSPFR,relative probability (RP),[1]; [8],30.9274
same,relative probability (RP),[2]; [9],37.3217
PRHR,relative probability (RP) (acc.to MMP2),[1]; [10],0.04
same,relative probability (RP) (acc.to MMP9),[2]; [11],0.35
PSNMEG,relative probability (RP),[1]; [8],32.3748
same,relative probability (RP),[2]; [9],45.3884
PMDIHA,relative probability (RP),[1]; [8],8.254
same,relative probability (RP),[2]; [9],39.7367
PDAL,relative probability (RP) (acc.to MMP2),[1]; [4],7.73
same,relative probability (RP),[2]; [6],29.54
same,relative probability (RP) (acc.to MMP9),[2]; [7],29.54
QQPQAL,relative probability (RP),[1]; [8],34.4508
same,relative probability (RP),[2]; [9],48.457
GPHGYK,relative probability (RP),[1]; [8],24.9359
same,relative probability (RP),[2]; [9],44.1642
EPKPLL,relative probability (RP),[1]; [8],33.5622
same,relative probability (RP),[2]; [9],48.2599
PYGIKG,relative probability (RP),[1]; [8],28.2788
same,relative probability (RP),[2]; [9],49.5245
AKAQ,corresponding MMP2 relative probability (RP),"[1]; MMP9 tetramers from unique substrates, RP of same tetramer for MMP2",5.884
same,MMP9 relative probability (RP),"[2]; MMP9 tetramers from unique substrates, unrounded values",0.8414
PSSV,relative probability (RP) (acc.to MMP2),[1]; [10],20.49
same,relative probability (RP) (acc.to MMP9),[2]; [11],25.16
QRGI,avg_RP,"[1]; MMP2 - no binning, average relative probability of the tetramer, redundant tetramers averaged out",7.4836
same,MMP2 relative probability (RP),[1],7.484
same,Relative probability (RP) rank,[1]; [12],6090
same,relative probability (RP),[1]; [12],7.48
same,relative probability (RP) (acc.to MMP2),[1]; [10],7.48
same,corresponding MMP9 relative probability (RP),[2],0.7406
same,Relative probability (RP) rank,[2]; [14],19198
same,relative probability (RP),[2]; [14],0.74
same,relative probability (RP) (acc.to MMP9),[2]; [11],0.74
PAQLHV,relative probability (RP),[1]; [8],32.8467
same,relative probability (RP),[2]; [9],43.1805
KSPVGV,relative probability (RP),[1]; [8],27.6556
same,relative probability (RP),[2]; [9],34.3287
ATPY,relative probability (RP) (acc.to MMP2),[1]; [3],12.49
same,relative probability (RP) of matching tetramer,[1],12.49
same,relative probability (RP) (acc.to MMP2),[1]; [4],12.49
same,relative probability (RP) (acc.to MMP9),[2]; [5],9.04
same,relative probability (RP),[2]; [6],9.04
same,relative probability (RP) (acc.to MMP9),[2]; [7],9.04
PVPV,relative probability (RP) (acc.to MMP2),[1]; [3],23.04
same,relative probability (RP) of matching tetramer,[1],23.04
same,relative probability (RP) (acc.to MMP2),[1]; [4],23.04
same,relative probability (RP) (acc.to MMP9),[2]; [5],29.89
same,relative probability (RP),[2]; [6],29.89
same,relative probability (RP) (acc.to MMP9),[2]; [7],29.89
PPGA,relative probability (RP) (acc.to MMP2),[1]; [10],0
same,relative probability (RP) (acc.to MMP9),[2]; [11],0.07
